US8338423B2, “Compositions for the treatment of hyperphenylalaninemia” (Universidad de Zaragoza, priority 2007, dated 2012)

Assays:
wt-PAH = target: T1, wt-PAH (Homo sapiens, UniProt P00439); experiment: Enzyme kinetic analysis of recombinant PAH activity; assay type: biochemical; conditions: for reduction in Vmax (activity dependence on L-Phe) / inhibition of PAH activity / increase of Km for BH4 / S0.5, L-Phe / Vmax, L-Phe / h (Hill coefficient), L-Phe / Vmax, BH4, No preincubation / Vmax, BH4, Preincubation: 100 μM compound; for reduction in Vmax (activity dependence on L-Phe): 75 μM BH4; for inhibition of PAH activity: 100 μM L-Phe, 10 μM BH4, L-Phe preincubation (FIG. 3A); for increase of Km for BH4: preincubation with 1 mM L-Phe; for S0.5, L-Phe / Vmax, L-Phe / h (Hill coefficient), L-Phe: 75 μM BH4, L-Phe 0-1 mM, preincubated; for S0.5, L-Phe / Vmax, L-Phe / h (Hill coefficient), L-Phe / Vmax, BH4, No preincubation / Vmax, BH4, Preincubation: mean ± S.E.; for Vmax, BH4, No preincubation / Vmax, BH4, Preincubation: 1 mM L-Phe, BH4 0-200 μM; for Vmax, BH4, No preincubation: not preincubated; for Vmax, BH4, Preincubation: preincubated with L-Phe; for Ki: using standard equations for competitive inhibition, read-out: Kl vs BH4 (competitive inhibition)
T1 construct: made in house; host or cells: E. coli
T1 sequence (P00439 1-452): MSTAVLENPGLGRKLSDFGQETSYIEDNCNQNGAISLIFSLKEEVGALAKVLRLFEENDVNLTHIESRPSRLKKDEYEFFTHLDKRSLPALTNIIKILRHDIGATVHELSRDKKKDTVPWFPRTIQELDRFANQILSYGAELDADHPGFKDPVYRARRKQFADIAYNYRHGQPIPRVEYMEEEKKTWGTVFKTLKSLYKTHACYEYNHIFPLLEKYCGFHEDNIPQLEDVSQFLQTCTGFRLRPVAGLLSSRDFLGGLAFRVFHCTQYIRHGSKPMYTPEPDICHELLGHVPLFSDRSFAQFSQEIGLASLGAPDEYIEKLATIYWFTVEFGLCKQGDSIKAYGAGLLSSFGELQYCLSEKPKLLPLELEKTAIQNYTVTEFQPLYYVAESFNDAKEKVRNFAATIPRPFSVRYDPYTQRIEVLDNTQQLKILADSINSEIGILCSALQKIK
Protocol: PAH activity was measured at 25° C. for 1 min essentially as described (BjØrgo E, et al., Eur. J. Biochem. 1988; 257(1):1-10). Tetrameric hPAH (1-2 μg) was incubated in 20 mM Hepes 0.2 M NaCl pH 7.0, containing catalase (0.04 mg/ml), 0.1-1 mM L-Phe, DMSO 2.5% and 0-100 μM of each compound. After 4 min incubation at 25° C., ferrous ammonium sulphate (100 μM) was added, and the reaction was triggered after 1 min by adding BH4 (10-200 μM) in the presence of 5 mM DTT. In some experiments, the preincubation step with L-Phe was omitted and L-Phe was added together with BH4 to analyze the L-Phe induced activation of the enzyme. To determine the kinetic parameters for BH4 and L-Phe, BH4 was used at 0-200 μM (at fixed 1 mM L-Phe) and L-Phe at 0-1 mM (BH4 was fixed at 75 μM). L-Tyr formed was quantified by HPLC and fluorimetric detection (DØskeland A P, et al., J. Biol. Chem. 1984; 259:11242-11248). The saturation curves were fitted to hyperbolic (for BH4) or sigmoidal (for L-Phe) kinetic models by using Sigma Plot v.9.0 (SPSS Inc).
PAH enzyme kinetics have been analyzed in the presence of the four hit compounds in order to know if ligand binding interferes with PAH catalytic activity. Activity measurements were performed in the presence of high (100 μM) concentrations of ligands with or without preincubating PAH enzyme with L-Phe prior to activity assays. L-Phe preincubation of human PAH lead to activation of the enzyme and manifestation of positive cooperativity by the substrate, and it is thought to play an important regulatory role on PAH activity in vivo (Pey A L, et al., In: Blau N. ed. Advances in PKU and BH4, 2006). […] It is worth noting that under these conditions, ligand concentration equalled L-Phe concentration (100 μM), and 10-fold exceeded BH4 concentration (10 μM). Except for compound 13, this inhibition was dramatically weakened when the preincubation step with L-Phe (100 μM) was ommited. Moreover, when L-Phe and BH4 are used at saturating concentrations, inhibition was abolished (FIG. 3B), indicating a rather weak and reversible inhibitory effect exerted by these ligands.
Further kinetic analyses were performed to determine if the weak inhibition was due to competition for the substrate and/or cofactor binding sites. Activity dependence on BH4 and L-Phe concentration was measured in the presence of 100 μM compound concentration, and the experimental data fitted to hyperbolic (BH4) or sigmoidal (L-Phe) kinetic models. The fitting parameters obtained from these experiments are compiled in Table 2. […] These values are substantially higher than those obtained for likely physiological inhibitors of PAH, such as 7S-BH4 and BH2 (Kl˜2-5 μM and ˜17 μM, respectively).

[1] = system: wt-PAH and I65T and R68S mutants expressed in A293 cells; experiment: PAH activity in extracts of transiently transfected A293 cells; assay type: cell-based, human; conditions: 40 μM compound, 24 h, vs DMSO 1% controls (FIG. 4A)
Protocol: Human embryonic kidney cells (A293; purchased from Invitrogen) were grown in Dulbecco's Modified Eagle's Medium (DMEM) containing 4.5 g/l glucose, 10% (v/v) fetal calf serum, 2 mM L-glutamine, 100 i.u./ml penicillin, 100 μg/ml streptomycin and 0.25 mg/ml G-418. A293 cells were transiently transfected with 1 μg of pcDNA3-PAH expression vector (wt or mutant PAH constructs), using the lipofectamine system (Gibco, Invitrogen) as described by the manufacturer. Pharmacological chaperones were added after 5 h of transfection (final concentration 40 μM ligand in DMSO 1%), incubated for 24 h and cells were then harvested and stored at −80° C. […]
Western blot analyses were performed after SDS-PAGE (10% acrylamide) using as primary antibody a monoclonal mouse ant-human PAH (Chemicon, Australia) and as secondary antibody a goat anti-mouse HRP conjugate (Bio-Rad, US). Detection was performed using a chemiluminiscence method (ECL; Amersham Biosciences) and quantified an a Fluor-S™ Multilmager (Bio-Rad, US) using Quantify one v. […]
After transfection of A293 cells with constructs carrying wt-PAH and PKU mutants cDNA, the cells were incubated for 24 h in the presence or absence of 40 μM of hit compounds 11 and 13. Cell were harvested and immunoreactive PAH protein and PAH activity were measured in soluble cell extracts. […]

Structure (SMILES)	reduction in Vmax (activity dependence on L-Phe) (wt-PAH)	inhibition of PAH activity (wt-PAH)	increase of Km for BH4 (wt-PAH) [%]	S0.5, L-Phe (wt-PAH) [µM]	Vmax, L-Phe (wt-PAH) [μmol L-Tyr/min·mg]	h (Hill coefficient), L-Phe (wt-PAH)	Vmax, BH4, No preincubation (wt-PAH) [μmol L-Tyr/min·mg]	Vmax, BH4, Preincubation (wt-PAH) [μmol L-Tyr/min·mg]	Ki (wt-PAH) [µM]	PAH activity enhancement [1]
Cc1onc(-c2ccccc2)c1-c1n[nH]c(N)c1C#N [Compound 5, 5-amino-3-(5-methyl-3-phenyl-4-isoxazolyl)-1H-pyrazole-4-carbonitrile]	about 13%	specially significant	~20	118 ± 5	3.02 ± 0.08	2.6 ± 0.3	0.80 ± 0.05	3.52 ± 0.41	~500	–
Cn1cnc([N+](=O)[O-])c1N1CCN(C(c2ccccc2)c2ccccc2)CC1 [Compound 6, 1-benzhydryl-4-(1-methyl-4-nitro-1H-imidazol-5-yl)piperazine]	–	–	–	156 ± 10	3.77 ± 0.13	1.8 ± 0.1	0.81 ± 0.05	2.96 ± 0.10	–	–
Nc1c(-c2ccc3ccccc3n2)c2ccc([N+](=O)[O-])cc2c(=O)n1Cc1ccccc1 [Compound 11, 3-amino-2-benzyl-7-nitro-4-(2-quinolyl)-1,2-dihydroisoquinolin-1-one]	–	–	–	138 ± 8	3.57 ± 0.11	1.9 ± 0.2	0.86 ± 0.03	2.87 ± 0.14	–	60-100%
Cc1ccnc(-n2c(=S)[nH]c3sc(C)c(C)c3c2=O)c1 [Compound 13, 5,6-dimethyl-3-(4-methyl-2-pyridinyl)-2-thioxo-2,3 dihydrothieno[2,3-d]pyrimidin-4(1H)-one]	~30%	specially significant	~50	131 ± 11	2.43 ± 0.10	1.6 ± 0.2	0.85 ± 0.07	3.11 ± 0.16	~200	40-50%
